In patent US20250074910A1, “MENIN INHIBITOR AND USE THEREOF” (HITGEN INC., priority 2021, published 2025):
Values joined by “and” are separate entries in the source; they are usually repeats but may differ in a detail not shown here. Equal entries are not always repeated. Where two headings read alike, the source gives them in different places.

Tests used:
MV4-11 = test: Cell proliferation inhibition (CellTiter-Glo), MV4-11; format: cell-based; conditions: MV4-11 cells
Procedure, shortened: (§1)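 Cells plated at 5,000-20,000/well, treated with compound at 1 nM to 10 μM final, cultured 72-168 h at 37 °C, 5% CO2. Viability measured by CellTiter-Glo luminescence after 10 min at room temperature; IC50 from curve fitting.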

OCI-AML3 = test: Cell proliferation inhibition (CellTiter-Glo), OCI-AML3 (NPM1 mutation); format: cell-based; conditions: OCI-AML3 cells
Procedure, shortened: as §1

MOLM-13 = test: Cell proliferation inhibition (CellTiter-Glo), MOLM-13; format: cell-based; conditions: MOLM-13 cells
Procedure, shortened: as §1

[1] = molecular target: hERG potassium ion channel (Homo sapiens (Human), UniProt Q12809); test: hERG potassium channel effect test (manual patch clamp, HEK293 cells overexpressing hERG); format: cell-based; conditions: for inhibition at 30 μM: human, HEK293 cells overexpressing hERG potassium ion channels, read-out: Average inhibition rate of hERG current at the highest compound tested concentration; for IC50: manual patch clamp, highest test concentration 30 μM
Sequence of hERG potassium ion channel (Q12809 whole entry): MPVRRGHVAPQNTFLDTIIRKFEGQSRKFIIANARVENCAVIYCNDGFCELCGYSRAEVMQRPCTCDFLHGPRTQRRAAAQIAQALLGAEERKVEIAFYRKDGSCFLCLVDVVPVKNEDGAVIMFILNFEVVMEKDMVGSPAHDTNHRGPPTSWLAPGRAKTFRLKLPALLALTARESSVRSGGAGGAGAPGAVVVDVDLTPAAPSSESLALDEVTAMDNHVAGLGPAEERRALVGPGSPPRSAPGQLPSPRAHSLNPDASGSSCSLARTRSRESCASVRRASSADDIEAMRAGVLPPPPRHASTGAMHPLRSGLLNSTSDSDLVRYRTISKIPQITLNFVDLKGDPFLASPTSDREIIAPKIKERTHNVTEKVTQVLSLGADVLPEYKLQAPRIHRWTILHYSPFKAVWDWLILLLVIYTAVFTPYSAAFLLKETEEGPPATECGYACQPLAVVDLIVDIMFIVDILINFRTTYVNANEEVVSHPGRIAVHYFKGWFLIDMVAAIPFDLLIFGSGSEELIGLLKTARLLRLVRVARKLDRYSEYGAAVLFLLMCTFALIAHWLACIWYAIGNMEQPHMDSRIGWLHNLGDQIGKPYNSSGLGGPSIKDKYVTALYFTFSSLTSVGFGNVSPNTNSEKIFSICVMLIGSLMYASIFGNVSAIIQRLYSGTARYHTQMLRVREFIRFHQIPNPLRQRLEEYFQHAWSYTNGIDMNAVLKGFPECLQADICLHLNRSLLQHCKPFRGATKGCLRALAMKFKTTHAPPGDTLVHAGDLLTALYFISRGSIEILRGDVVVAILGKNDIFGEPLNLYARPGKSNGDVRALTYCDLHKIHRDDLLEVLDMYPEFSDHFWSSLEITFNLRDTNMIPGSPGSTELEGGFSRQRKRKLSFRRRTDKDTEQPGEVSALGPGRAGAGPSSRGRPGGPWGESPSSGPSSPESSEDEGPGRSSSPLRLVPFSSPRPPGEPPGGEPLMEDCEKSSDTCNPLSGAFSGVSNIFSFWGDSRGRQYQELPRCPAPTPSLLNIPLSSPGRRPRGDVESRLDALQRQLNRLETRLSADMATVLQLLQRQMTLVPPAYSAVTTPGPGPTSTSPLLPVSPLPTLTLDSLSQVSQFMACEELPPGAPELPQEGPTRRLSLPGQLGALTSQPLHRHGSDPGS
Experimental: Test Example 6: hERG Potassium Channel Effect Test
The hERG inhibition test was performed on some of the example compounds of the present disclosure using the manual electrophysiological patch clamp method. The cell line was derived from HEK293 cells that overexpressed hERG potassium ion channels. The specific experimental protocol was developed by PharmaCore Labs with reference to literature published in peer-reviewed journals and was performed by PharmaCore Labs in accordance with its standard experimental operating procedures. The highest test concentration was 30 μM.

[2] = molecular target: Menin/MLL-4-43 peptide interaction (Homo sapiens (Human), UniProt O00255); test: Menin-MLL interaction inhibitory activity assay (fluorescence polarization competition); format: binding; conditions: FITC-MLL4-43-peptide, Menin recombinant protein
Sequence of Menin/MLL-4-43 peptide interaction (O00255 whole entry, species assumed): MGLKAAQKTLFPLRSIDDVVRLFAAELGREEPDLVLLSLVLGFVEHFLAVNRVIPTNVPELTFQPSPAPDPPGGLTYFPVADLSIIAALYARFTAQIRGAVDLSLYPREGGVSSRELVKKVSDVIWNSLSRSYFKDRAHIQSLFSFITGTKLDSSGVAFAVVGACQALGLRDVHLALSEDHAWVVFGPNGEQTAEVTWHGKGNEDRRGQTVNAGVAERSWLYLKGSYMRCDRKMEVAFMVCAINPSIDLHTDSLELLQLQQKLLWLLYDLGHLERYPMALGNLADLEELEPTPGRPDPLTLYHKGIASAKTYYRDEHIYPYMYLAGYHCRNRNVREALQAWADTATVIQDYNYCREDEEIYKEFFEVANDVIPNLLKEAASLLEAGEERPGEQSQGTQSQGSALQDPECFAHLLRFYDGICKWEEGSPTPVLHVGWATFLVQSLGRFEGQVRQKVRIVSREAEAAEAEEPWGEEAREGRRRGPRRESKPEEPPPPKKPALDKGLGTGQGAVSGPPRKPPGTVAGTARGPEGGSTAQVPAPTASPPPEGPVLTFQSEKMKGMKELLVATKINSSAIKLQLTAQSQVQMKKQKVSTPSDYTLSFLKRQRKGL
Procedure, shortened: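 Menin (8 nM solution) was preincubated 15 min with compound, then FITC-MLL4-43 peptide (10 nM solution) was added and shaken for 60 min at 25 °C. The buffer was 50 mM Tris pH 7.5, 50 mM NaCl, 1 mM DTT. IC50 was derived from fluorescence polarization read at 485/520 nm.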

[3] = Stability in mouse liver microsomes; format: in vitro ADME; conditions: liver microsomes, pH 7.4, 0.5 mg/mL microsomal protein, 1.00 μM compound, NADPH, read-out: Half life T1/2, mouse liver microsomes
Experimental: (§2) Test Example 3: Test of Stability of Compounds in Liver Microsome
(§3) Test purpose: To determine the stability of some of the compounds of the present disclosure in mouse, dog and human liver microsomes by LC-MS/MS method.
(§4) Test materials: The test drugs were in-house prepared example compounds of the present disclosure; the positive reference compound SNDX-5613 was prepared by the method of Example 253 in patent WO2017214367; the control compound 1 was prepared by the method of Example 64 in WO2017214367; liver microsomes were purchased from CORNING.
(§5) The total volume of each incubation system was approximately 45 μL, and the medium was 100 mM phosphate buffer (PBS, pH 7.4), including liver microsomal protein at a final concentration of 0.5 mg/mL, 1.00 μM compound and 2.00 mM NADPH, and the organic phase content was <1%. Incubation was performed in a 37° C. incubator, and 135 μL of ice-cold acetonitrile was added after 0, 5, 15, 30 and 60 min of reaction to terminate the reaction. The positive control group was incubated with 1.00 μM Ketanserin, 0.5 mg/mL liver microsomal protein and 2.00 mM NADPH in a 37° C. incubator for 0, 5, 15, 30 and 60 min respectively, and then 135 μL of ice-cold acetonitrile was added to terminate the reaction. The 96-well plates were shaken at 600 rpm for 10 min and then centrifuged at 4700 rpm at 4° C. for 15 min. 80 μL of supernatant was mixed with 320 μL of pure water, and the remaining amount of the compound was detected by LC-MS/MS method. The in vitro half life (T½) and intrinsic clearance (CLint) were calculated according to the following formula:
(§6) Intrinsic clearance (Clint)=(0.693/T1/2)×(1/liver microsome concentration)×conversion factor. k is the linear regression slope of the remaining percentage of the ln compound-incubation time.

[4] = Stability in dog liver microsomes; format: in vitro ADME; conditions: dog, liver microsomes, pH 7.4, Dog; 0.5 mg/mL microsomal protein, 1.00 μM compound, NADPH; read-out: Half life T1/2, dog liver microsomes
Experimental: as §2, §3, §4, §5, §6

[5] = Stability in human liver microsomes; format: in vitro ADME; conditions: human, liver microsomes, pH 7.4, Human; 0.5 mg/mL microsomal protein, 1.00 μM compound, NADPH; read-out: Half life T1/2, human liver microsomes
Experimental: as §2, §3, §4, §5, §6

[6] = Pharmacokinetics test in mouse; format: in vivo, ICR mice; conditions: mice, p.o. 10 mg/kg
Source text: Test Example 4. In Vivo Pharmacokinetic Study
Test purpose: To determine the pharmacokinetic properties of some of the example compounds of the present disclosure in mice, rats and dogs after single intravenous injection (i.v.) and oral gavage (i.g.) administration by LC-MS/MS method.
Research methods: An appropriate amount of compound was weighed and prepared into a transparent clear solution of a certain concentration using 0.9% sodium chloride injection and 1.5 equivalents of 1M HCl aqueous solution based on the molar number of the compound. After SPF male ICR mice, SPF male SD rats, and male beagle dogs were fasted overnight, the test compound solution was given by intravenous injection and oral gavage at the corresponding dose. Anticoagulated whole blood of the test animals was collected at 5 min, 15 min, 30 min, 1 h, 2 h, 4 h, 8 h, and 24 h after administration, and plasma was separated. Plasma samples at each time point were detected by LC-MS/MS, and the plasma concentration of the compound was determined by the standard curve correction method. Phoenix WinNonlin 5.2 non-compartmental model was used to calculate the pharmacokinetic parameters of terminal elimination half-life (t½), blood peak concentration (Cmax), area under the concentration-time curve (AUC), clearance (CL), and bioavailability (F %), which was directly obtained from the serum concentration results. Blood drug concentration and pharmacokinetic parameters are expressed as mean±standard deviation (X±SD). The specific test protocols for each species are as follows.
Pharmacokinetics Test in Mouse
Test animals: SPF male ICR mice, weighing 25-30 g, 12 mice/compound, purchased from Chengdu Dossy Experimental Animal Co., Ltd.
Test design: On the day of the test, ICR mice were randomly divided into groups according to body weight, fasted but with free water for 12-14 h one day before administration, and fed 2 h after administration.
Preparation of test compound solution: The concentration of the test compound for oral gavage was 1 mg/mL. An appropriate amount of compound was weighed and prepared into a 1 mg/mL transparent clear solution using 0.9% sodium chloride injection and 1.5 equivalents of 1M HCl aqueous solution. The concentration of the test compound for intravenous injection was 0.2 mg/mL. The 1 mg/mL transparent clear solution was diluted to a concentration of 0.2 mg/mL using 0.9% sodium chloride injection. The volume of 1 M HCl solution added was calculated as: volume of 1 M HCl solution added […]=weighed amount of compound (mg)/molecular weight×1.5×1000. The amount added during preparation must not exceed the calculated value.
The test substance was administered as follows: intravenous injection: 1 mg/kg of dose, 5 mL/kg of volume, 6 mice; oral gavage: 10 mg/kg of dose, 10 mL/kg of volume, 6 mice.
Sample collection: Blood (40-50 μl) was collected in anticoagulant tubes sprayed with EDTA-K2 through the orbital venous plexus at 5 min, 15 min, 30 min, 1 h, 2 h, 4 h, 8 h, and 24 h after administration, and centrifuged at 10,000 rpm for 20 min within 1 h (the blood was saved on wet ice before and after centrifugation). The supernatant, which was plasma, was collected and frozen in a refrigerator at −20° C. or below for LC-MS/MS analysis of Full PK of male ICR mice (2 mice per group, 4 blood collection time points per mouse, crossover).

[7] = male, ICR, mouse, plasma, po, 10 mg/kg

SMILES	GI50 (MV4-11; Homo sapiens, MV4-11, 72 h) [nM]	GI50 (OCI-AML3; Homo sapiens, OCI-AML-3, 168 h) [nM]	GI50 (MOLM-13; Homo sapiens, MOLM-13, 168 h) [nM]	inhibition at 30 μM [1] [%]	IC50 [1] [nM]	IC50 [2] [nM]	half-life at 1 μM [3] [h]	half-life at 1 μM [4] [h]	half-life at 1 μM [5] [h]	GI50 (MV4-11; 72 h) [nM]	GI50 (OCI-AML3; 168 h) [nM]	GI50 (MOLM-13; 168 h) [nM]	AUC(0-t) [6, 7] [ng·h/mL]	half-life [6, 7] [h]	Cmax ([6]; male, ICR, mouse, plasma, po, 10 mg/kg, read-out: Cmax) [ng/mL]	AUClast [6] [ng·h/mL]	Cmax [6] [ng/mL]	T1/2 [6] [h]	F, % ([6]; 1 mg/kg for intravenous injection)
CC1C[C@]2(CC[C@@H](CN3CCC4(CC3)CN(c3ncnnc3Oc3ccc(F)cc3C(=O)N(C(C)C)C(C)C)C4)CC2)NC1=O (stereo partly drawn) [Example 41-1]	25.5	64.1	52.7	13.2	> 30000	10.8	–	–	–	–	–	–	–	–	–	–	–	–	–
CCN(C(=O)c1cc(F)ccc1Oc1nncnc1N1CC2(CCN(C[C@H]3CC[C@]4(CC3)CC(C)(C)C(=O)N4)CC2)C1)C(C)C [Example 26]	19.2	94	162	–	–	7.4	1.33	1.04	0.618	–	–	–	–	–	–	–	–	–	–
CCN(C(=O)c1cc(F)ccc1Oc1nncnc1N1CC2(CCN(C[C@H]3CC[C@]4(CC3)CC(COC)(COC)C(=O)N4)CC2)C1)C(C)C [Example 19]	13.2	28.5	33.1	12.8	> 30000	–	> 2	> 2	1.35	–	–	–	–	–	–	–	–	–	–
CC(C)N(C(=O)c1cc(F)ccc1Oc1nncnc1N1CC2(CCN(C[C@H]3CC[C@]4(CC3)CC(C(C)(C)O)C(=O)N4)CC2)C1)C(C)C (single isomer, unassigned) [Example 59-1b]	–	–	–	–	–	10.3	1.65	1.17	0.479	9.5	20.1	34.3	–	–	–	–	–	–	–
[2H]C([2H])([2H])C1C[C@]2(CC[C@@H](CN3CCC4(CC3)CN(c3ncnnc3Oc3ccc(F)cc3C(=O)N(CC)C(C)C)C4)CC2)NC1=O (single isomer, unassigned) [Example 42-1]	45.4	111	216	–	–	15.3	> 2	1.33	0.757	–	–	–	–	–	–	–	–	–	–
CC(C)N(C(=O)c1cc(F)ccc1Oc1nncnc1N1CC2(CCN(C[C@H]3CC[C@@]4(CCC(=O)N4)CC3)CC2)C1)C(C)C [Example 8]	197	142	96.4	–	–	67.2	1.11	1.56	0.786	–	–	–	–	–	–	–	–	–	–
CCN(C(=O)c1cc(F)ccc1Oc1nncnc1N1CC2(CCN(C[C@H]3CC[C@]4(CC3)C[C@@H](COC)C(=O)N4)CC2)C1)C(C)C [Example 37-2]	15.2	40.9	46.5	–	–	3.3	> 2	1.5	1.09	–	–	–	–	–	–	–	–	–	–
CCN(C(=O)c1cc(F)ccc1Oc1nncnc1N1CC2(CCN(C[C@H]3CC[C@]4(CC3)CC(C(C)(C)O)C(=O)N4)CC2)C1)C(C)C (single isomer, unassigned) [Example 58-1a]	17.7	22.9	54.4	–	–	5.4	> 2	1.16	0.396	–	–	–	–	–	–	–	–	–	–
CC(C)N(C(=O)c1cc(F)ccc1Oc1cncnc1N1CC2(CCN(C[C@H]3CC[C@@]4(CCC(=O)N4)CC3)CC2)C1)C(C)C [Example 5]	47.8	242	46.5	33.1	> 30000	34	–	–	–	–	–	–	7700	1.37	2620	8285	2535	1.91	84% and 72%
